Assay results as given in US20250134792A1, “COMPOSITIONS AND METHODS FOR TREATING SKIN” (L'Oreal, priority 2023, published 2025).

Columns and labels:
[1] = tested on: normal human epidermal keratinocytes (NHEK); assay: Proliferation: KI67 staining of NHEKs; type: cell-based; conditions: proxylane 0.005%, 0.017%, 0.05%; niacinamide 0.0012%, 0.004%, 0.012%; alone or in combination; FIG. 3
Description: Surgical skin samples were taken from adults and subjected to the 0.25% trypsin dermis/epidermis separation method described in Rheinwald to obtain suspensions of normal human epidermal keratinocytes (NHEK) and dermal fibroblasts. […] The NHEK cell cultures were initiated using the 3T3 feeder-layer technique described in Rheinwald J. G., Green H.: Epidermal growth factor and the multiplication of cultured human epidermal keratinocytes.
Keratinocytes were stained against KI67 and expression was quantified.

[2] = tested on: Normal Human Epidermal Melanocytes-Dark Pigment; assay: PGE-2 induced inflammation and melanin synthesis; type: cell-based; conditions: 30 nM PGE2 stimulated melanocytes; 10 mM (0.12%) niacinamide, proxylane (0.19%); 10 days; FIG. 10
Protocol: Normal Human Epidermal Melanocytes-Dark Pigment (Lot 1981687, Passage 3, ThermoFisher, Waltham, MA) were seeded in 6-well plates at a density of 100,000 cells per well. Cells were grown in culture medium supplemented with Gibo Human Melanocyte Growth Supplement-2 (ThermoFisher, Waltham, MA). […] Following the 10 days, cells were trypsinized and the melanin was isolated using NaOH. A standard curve using commercially available melanin was used to calculate the average cellular melanin content using the recorded optical density of the isolated melanin using a microplate reader. Average cellular melanin content was normalized to total protein content.

neutrophil elastase = target: T1, neutrophil elastase (Homo sapiens, UniProt P08246); conditions: alone and in combination; 37° C., fluorescence slope over thirty minutes; FIG. 5
T1 sequence (P08246 30-267): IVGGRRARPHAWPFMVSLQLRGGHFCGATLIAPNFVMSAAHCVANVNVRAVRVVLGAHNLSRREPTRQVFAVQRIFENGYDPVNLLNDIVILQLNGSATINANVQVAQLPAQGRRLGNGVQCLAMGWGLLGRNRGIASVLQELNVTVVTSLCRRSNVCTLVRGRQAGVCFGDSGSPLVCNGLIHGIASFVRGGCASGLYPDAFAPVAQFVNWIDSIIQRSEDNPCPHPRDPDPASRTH

**Q.** Which results are given for `NC(=O)c1cccnc1` [vitamin B3, niacinamide]?
**A.** cell proliferation of keratinocytes (KI67 expression) [1]: capable of stimulating; melanin production (average cellular melanin content normalized to total protein) [2]: significantly decreases; elastase activity (neutrophil elastase): inhibit
